The values that follow come from patent publication US20230203043A1, “NOVEL IMIDAZOPYRAZINE DERIVATIVES” (Hoffmann-La Roche Inc., priority 2020, published 2023).

Counter-ions that a name gives are not always drawn.

One assay relates to Acinetobacter baumannii ATCC17961. The assay can be described thus: Antimicrobial susceptibility testing: 90% growth inhibitory concentration (IC90) determination in Iso-Sensitest broth, OD600 growth. The class given is cell-based. The note with it: Acinetobacter baumannii, ATCC17961, 16 h, read-out: A. baumannii ATCC 17961 IC90 (uM), strain ATCC 17961, OD600 growth over 16 h. The procedure, abridged: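 Compounds were twofold serially diluted in DMSO across 10 points (e.g. 50 to 0.097 μM final) and inoculated at ~5×10^(5) CFU/ml. Plates incubated at 35±2° C, with OD600 read every 20 minutes over 16 h. IC90 was derived from growth inhibition during logarithmic growth.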
Take `NCCOCCNC(=O)c1ccc(Nc2nccn3c(-c4cn(CC(F)F)nc4C(F)(F)F)cnc23)cc1F` [Example 809, N-(2-(2-aminoethoxy)ethyl)-4-((3-(1-(2,2-difluoroethyl)-3-(trifluoromethyl)-1H-pyrazol-4-yl)imidazo[1,2-a]pyrazin-8-yl)amino)-2-fluorobenzamidei hydrochloride]: the IC90 was found to be 0.17 µM.
With `N[C@H]1CC[C@H](C(=O)N2CCN(C(=O)c3ccc(Nc4nccn5c(-c6c[nH]nc6C(F)(F)F)cnc45)cc3Cl)CC2)C1` [Example 575, (4-((1S,3S)-3-aminocyclopentane-1-carbonyl)piperazin-1-yl)(2-chloro-4-((3-(3-(trifluoromethyl)-1H-pyrazol-4-yl)imidazo[1,2-a]pyrazin-8-yl)amino)phenyl)methanone formate], the IC90 amounted to 0.175 µM.
Consider `CCc1cc(Nc2nccn3c(-c4cn(CC(F)F)nc4C(F)(F)F)cnc23)ccc1C(=O)NCC(=O)NCC1CNC1` [Example 547, N-[2-(azetidin-3-ylmethylamino)-2-oxo-ethyl]-4-[[3-[1-(2,2-difluoroethyl)-3-(trifluoromethyl)pyrazol-4-yl]imidazo[1,2-a]pyrazin-8-yl]amino]-2-ethyl-benzamide formate], for which the IC90 was 0.298 µM.

The assay is the same for the next values; noted with them: Acinetobacter baumannii, ATCC17961, 16 h, strain ATCC 17961, OD600 growth over 16 h, read-out: A. baumannii ATCC 17961 IC90.
In the case of `CCc1cc(Nc2nccn3c(-c4cn(COC)nc4C(F)F)cnc23)ccc1C(=O)N1CCN(C(=O)[C@H](C)N)CC1` [Example 767, (S)-2-amino-1-(4-(4-((3-(3-(difluoromethyl)-1-(methoxymethyl)-1H-pyrazol-4-yl)imidazo[1,2-a]pyrazin-8-yl)amino)-2-ethylbenzoyl)piperazin-1-yl)propan-1-one], the IC90 came to 0.904 µM.
On to `NC1CN(C(=O)CNC(=O)c2ccc(Nc3nccn4c(-c5c[nH]nc5C(F)(F)F)cnc34)cc2Cl)C1` [Example 141, N-[2-(3-aminoazetidin-1-yl)-2-oxoethyl]-2-chloro-4-[[3-[3-(trifluoromethyl)-1H-pyrazol-4-yl]imidazo[1,2-a]pyrazin-8-yl]amino]benzamide], for which the IC90 stood at 4.05 µM.
In the case of `CCNC(=O)c1ccc(Nc2nccn3c(-c4cn(CC#N)nc4C(F)(F)F)cnc23)cc1Cl` [Example 230, 2-chloro-4-[[3-[1-(cyanomethyl)-3-(trifluoromethyl)pyrazol-4-yl]imidazo[1,2-a]pyrazin-8-yl]amino]-N-ethylbenzamide], the IC90 was 0.091 µM.
In the case of `CCc1cc(Nc2nccn3c(-c4cn(CC(F)F)nc4C(F)(F)F)cnc23)ccc1C(=O)NCCCN` [Example 52, N-(3-aminopropyl)-4-[[3-[1-(2,2-difluoroethyl)-3-(trifluoromethyl)pyrazol-4-yl]imidazo[1,2-a]pyrazin-8-yl]amino]-2-ethylbenzamide], the IC90 was 0.144 µM.
`CCc1cc(Nc2nccn3c(-c4cn(CC(N)=O)nc4C(F)(F)F)cnc23)ccc1C(=O)NCCCNC(=O)[C@@H]1CCCN1` [Example 789, (S)-N-(3-(4-((3-(1-(2-amino-2-oxoethyl)-3-(trifluoromethyl)-1H-pyrazol-4-yl)imidazo [1,2-a]pyrazin-8-yl)amino)-2-ethylbenzamido)propyl)pyrrolidine-2-carboxamide]: the IC90 turned out to be 1.61 µM.
With `Cc1cc(Nc2nccn3c(-c4cn(CC(F)F)nc4C(F)(F)F)cnc23)cc(F)c1C(=O)N[C@H](C)CNC(=O)[C@H]1[C@@H]2CNC[C@@H]21` [Example 653, (1R,5S,6r)-N-((R)-2-(4-((3-(1-(2,2-difluoroethyl)-3-(trifluoromethyl)-1H-pyrazol-4-yl)imidazo [1,2-a]pyrazin-8-yl)amino)-2-fluoro-6-methylbenzamido)propyl)-3-azabicyclo[3.1.0]hexane-6-carboxamide], the IC90 came to 0.259 µM.

The same assay, now with this note: strain ATCC 17961, OD600 growth over 16 h, read-out: A. baumannii ATCC 17961 IC90.
As for `C=CCn1cc(-c2cnc3c(Nc4ccc(C(=O)NCCOCC(C)N)c(CC)c4)nccn23)c(C(F)(F)F)n1` (stereo in doubt) [Example 146, N-[2-[(2S)-2-aminopropoxy]ethyl]-2-ethyl-4-[[3-[1-prop-2-enyl-3-(trifluoromethyl)pyrazol-4-yl]imidazo[1,2-a]pyrazin-8-yl]amino]benzamide], the IC90 was determined as 0.028 µM.
